Several values for one entry are separate records, joined by “and”; a condition that tells them apart may be missing. Equal values may be shown once. Read-outs that look alike come from different tables or passages of the source.
How the values were obtained:
SFRP-1 [1] = molecular target: T1, SFRP-1 (Homo sapiens, UniProt Q8N474); test: Cell-based assay for in vitro measurement of SFRP-1/SARP2 antagonist activity (U2OS cells co-transfected with 16x TCF-tk-Luciferase reporter, Wnt and hSFRP-1); conditions: for fold induction at 15 µM / fold induction at 10 µM: U2OS; for fold induction at 10 µM: read-out: Fold Induction with SFRP-1, U2OS cells, single dose 10 μM, luciferase reporter, fold induction over SFRP-1 control;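 as to all read-outs here: U2OS cells co-transfected with a TCF-tk luciferase reporter, a Wnt vector, hSFRP-1 or empty vector and CMV-βgal, luciferase luminescence read in cell lysates alongside βgal activity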
T1 sequence (Q8N474 32-314): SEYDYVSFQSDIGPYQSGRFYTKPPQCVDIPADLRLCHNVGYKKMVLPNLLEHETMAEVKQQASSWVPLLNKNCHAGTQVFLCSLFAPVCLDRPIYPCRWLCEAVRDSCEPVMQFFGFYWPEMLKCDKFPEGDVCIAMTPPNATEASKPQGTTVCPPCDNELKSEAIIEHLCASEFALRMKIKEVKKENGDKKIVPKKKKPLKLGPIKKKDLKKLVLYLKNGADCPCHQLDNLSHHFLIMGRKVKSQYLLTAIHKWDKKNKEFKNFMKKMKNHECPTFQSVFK

SFRP-1 [2] = molecular target: T1, SFRP-1; test: Fluorescence polarization binding assay (competitive displacement of a probe compound from SFRP-1); conditions: fluorescence anisotropy, 45 nM SFRP-1, 20 nM probe;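 also: test compound competes with a fluorescent probe held by SFRP-1, seen as a drop in probe anisotropy after incubation in darkness, with anisotropy as function of rising compound dose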
[3] = read-out: Fold Induction with SFRP-1, Conc 15 μM, with SFRP-1, fold induction over SFRP-1 control, single dose
[4] = read-out: Fold Induction without SFRP-1, Conc 15 μM, without SFRP-1, single dose
[5] = read-out: Fold Induction with SFRP-1, Conc 15 μM, single dose, luciferase reporter, fold induction over SFRP-1 control, cells with SFRP-1
[6] = read-out: Fold Induction without SFRP-1, Conc 15 μM, single dose, luciferase reporter, cells without SFRP-1 (specificity control)

Compound | fold induction at 15 µM (SFRP-1 [1]; [3]) | fold induction at 15 µM (SFRP-1 [1]; [4]) | IC50 (SFRP-1 [2]) | EC50 (SFRP-1 [1]) | fold induction at 10 µM (SFRP-1 [1]) | fold induction at 15 µM (SFRP-1 [1]; [5]) | fold induction at 15 µM (SFRP-1 [1]; [6])
CC(C)c1ccc(S(=O)(=O)c2ccc(F)cc2)cc1S(=O)(=O)NCCn1ccnc1 [Example 318, 5-[(4-fluorophenyl)sulfonyl]-N-[2-(1H-imidazol-1-yl)ethyl]-2-isopropylbenzenesulfonamide] | 3.9 | 1.1 | 400 nM and 500 nM and 600 nM and 700 nM and 900 nM |  |  |  | 
O=S(=O)(NCCO)c1cc(S(=O)(=O)c2ccccc2)ccc1C(F)(F)F [Example 681, N-(2-hydroxyethyl)-5-(phenylsulfonyl)-2-(trifluoromethyl)benzenesulfonamide] |  |  | 1100 nM | 4300 nM | 3.4 |  | 
CCOC(=O)CNC(=O)N(C)CCNS(=O)(=O)c1cc(S(=O)(=O)c2ccccc2)ccc1C(F)(F)F [Example 882, ethyl N-({methyl[2-({[5-(phenylsulfonyl)-2-(trifluoromethyl)phenyl]sulfonyl}amino)ethyl]amino}carbonyl)glycinate] |  |  | 80 nM | 627 nM | 3.4 |  | 
CC(C)c1ccc(S(=O)(=O)c2ccccc2)cc1S(=O)(=O)NCC(O)c1cccnc1 (stereo not drawn) [Example 735, N-(2-hydroxy-2-pyridin-3-ylethyl)-2-isopropyl-5-(phenylsulfonyl)benzenesulfonamide] |  |  | 900 nM |  | 4.1 |  | 
O=S(=O)(NC1Cc2ccc(Br)cc2C1)c1cc(S(=O)(=O)c2ccccc2)ccc1C(F)(F)F (stereo not drawn) [Example 1094, N-(5-bromo-2,3-dihydro-1H-inden-2-yl)-5-(phenylsulfonyl)-2-(trifluoromethyl)benzenesulfonamide] |  |  | 110 nM |  | 10.4 |  | 
O=S(=O)(NCCc1ccncc1)c1cc(S(=O)(=O)c2ccccc2)ccc1Cl [Example 641, 2-chloro-5-(phenylsulfonyl)-N-(2-pyridin-4-ylethyl)benzenesulfonamide] |  |  | 1100 nM |  |  | 3 | 1
O=C(O)CCCC(=O)N1CCC(NS(=O)(=O)c2cc(S(=O)(=O)c3ccccc3)ccc2C(F)(F)F)C1 (stereo not drawn) [Example 895, 5-oxo-5-[3-({[5-(phenylsulfonyl)-2-(trifluoromethyl)phenyl]sulfonyl}amino)pyrrolidin-1-yl]pentanoic acid] |  |  | 190 nM | 871 nM | 2.9 |  | 
COc1ccc(CNS(=O)(=O)c2cc(S(=O)(=O)c3ccccc3)ccc2C(F)(F)F)c(OC)c1 [Example 1021, N-(2,4-dimethoxybenzyl)-5-(phenylsulfonyl)-2-(trifluoromethyl)benzenesulfonamide] |  |  | 200 nM | > 10000 nM |  |  | 
O=S(=O)(NC1CCN(Cc2nn[nH]n2)CC1)c1cc(S(=O)(=O)c2ccccc2)ccc1C(F)(F)F [Example 885, 5-(phenylsulfonyl)-N-[1-(2H-tetrazol-5-ylmethyl)piperidin-4-yl]-2-(trifluoromethyl)benzenesulfonamide] |  |  | 400 nM | 2090 nM | 2.7 |  | 
COCCCNS(=O)(=O)c1cc(S(=O)(=O)c2ccccc2)ccc1C(F)(F)F [Example 768, N-(3-methoxypropyl)-5-(phenylsulfonyl)-2-(trifluoromethyl)benzenesulfonamide] |  |  | 400 nM | 1130 nM | 3.4 |  | 
CC(C)c1ccc(S(=O)(=O)c2ccc(C(C)(C)C)cc2)cc1S(=O)(=O)NCCCn1ccnc1 [Example 436, 5-[(4-tert-butylphenyl)sulfonyl]-N-[3-(1H-imidazol-1-yl)propyl]-2-isopropylbenzenesulfonamide] | 2.2 | 1 | 1000 nM |  |  |  | 
CC(C)c1ccc(S(=O)(=O)c2ccc(F)cc2)cc1S(=O)(=O)NCC1CCCO1 (stereo not drawn) [Example 532, 5-[(4-fluorophenyl)sulfonyl]-2-isopropyl-N-(tetrahydrofuran-2-ylmethyl)benzenesulfonamide] |  |  | 4000 nM |  |  | 2.8 | 1.1

Source: patent publication US20060276464A1, “Diarylsulfone sulfonamides and use thereof” (Wyeth, priority 2005, published 2006)
